Measured values taken from the NIST ThermoML archive (doi:10.1021/je0501843).
Where “and” joins values, the source holds several entries; their conditions need not be identical. Equal values may be shown once.

Assay: molar heat capacity at constant volume
Conditions: Fluid (supercritical or subcritical phases), Vacuum adiabatic calorimetry

FC(F)C(F)(F)F [pentafluoroethane]
Conditions | molar heat capacity at constant volume
306 K, Mass density=1202.8 kg/m3 | 102.77 J/K/mol
307 K, Mass density=1202.7 kg/m3 | 103.99 J/K/mol
308 K, Mass density=1202.5 kg/m3 | 103.96 J/K/mol
309 K, Mass density=1202.4 kg/m3 | 102.49 J/K/mol
310 K, Mass density=1202.3 kg/m3 | 101.48 J/K/mol
311 K, Mass density=1202.1 kg/m3 | 102.64 J/K/mol
312 K, Mass density=1202 kg/m3 | 103.21 J/K/mol
313 K, Mass density=1201.9 kg/m3 | 102.64 J/K/mol
314 K, Mass density=1201.7 kg/m3 | 103.24 J/K/mol
315 K, Mass density=1201.6 kg/m3 | 102.92 J/K/mol
316 K, Mass density=1201.5 kg/m3 | 103.09 J/K/mol
317 K, Mass density=1201.4 kg/m3 | 102.73 J/K/mol
318 K, Mass density=1201.2 kg/m3 | 102.19 J/K/mol
319 K, Mass density=1201.1 kg/m3 | 102.74 J/K/mol
320 K, Mass density=1201 kg/m3 | 102.92 J/K/mol
321 K, Mass density=1200.8 kg/m3 | 102.75 J/K/mol and 102.7 J/K/mol
322 K, Mass density=1079.2 kg/m3 | 106.18 J/K/mol and 102.47 J/K/mol
322 K, Mass density=1200.7 kg/m3 | 102.47 J/K/mol and 101.89 J/K/mol
323 K, Mass density=1079.1 kg/m3 | 105.94 J/K/mol and 104.02 J/K/mol
323 K, Mass density=1200.6 kg/m3 | 102.89 J/K/mol and 102.1 J/K/mol
324 K, Mass density=1079 kg/m3 | 105.71 J/K/mol and 105.31 J/K/mol
324 K, Mass density=1200.5 kg/m3 | 102.77 J/K/mol and 102.45 J/K/mol
325 K, Mass density=1078.9 kg/m3 | 104.71 J/K/mol and 104.09 J/K/mol
325 K, Mass density=1200.3 kg/m3 | 102.83 J/K/mol and 102.31 J/K/mol
326 K, Mass density=1078.8 kg/m3 | 103.25 J/K/mol and 103.34 J/K/mol
326 K, Mass density=1200.2 kg/m3 | 102.63 J/K/mol and 102.1 J/K/mol
327 K, Mass density=1078.7 kg/m3 | 104.31 J/K/mol
327 K, Mass density=1200.1 kg/m3 | 102.65 J/K/mol and 102.35 J/K/mol
328 K, Mass density=1078.6 kg/m3 | 105.03 J/K/mol and 104.85 J/K/mol
328 K, Mass density=1199.9 kg/m3 | 102.89 J/K/mol
328 K, Mass density=1200 kg/m3 | 103.64 J/K/mol
329 K, Mass density=1078.5 kg/m3 | 104.79 J/K/mol and 104.41 J/K/mol
329 K, Mass density=1199.8 kg/m3 | 102.81 J/K/mol and 102.69 J/K/mol
330 K, Mass density=1078.4 kg/m3 | 105.01 J/K/mol and 104.07 J/K/mol
330 K, Mass density=1199.7 kg/m3 | 103.09 J/K/mol
331 K, Mass density=1078.3 kg/m3 | 104.36 J/K/mol and 104.2 J/K/mol
331 K, Mass density=1199.6 kg/m3 | 102.64 J/K/mol
332 K, Mass density=976.3 kg/m3 | 110.56 J/K/mol and 112.17 J/K/mol
332 K, Mass density=1078.2 kg/m3 | 104.98 J/K/mol and 105.47 J/K/mol
332 K, Mass density=1199.4 kg/m3 | 103.45 J/K/mol
333 K, Mass density=976.2 kg/m3 | 107.88 J/K/mol and 109.12 J/K/mol
333 K, Mass density=1078.1 kg/m3 | 105.77 J/K/mol and 104.87 J/K/mol
333 K, Mass density=1199.3 kg/m3 | 103.83 J/K/mol
334 K, Mass density=976.2 kg/m3 | 105.25 J/K/mol and 107.12 J/K/mol
334 K, Mass density=1078 kg/m3 | 104.98 J/K/mol and 103.53 J/K/mol
334 K, Mass density=1199.2 kg/m3 | 103.39 J/K/mol
335 K, Mass density=976.1 kg/m3 | 106.11 J/K/mol and 106.99 J/K/mol
335 K, Mass density=1077.9 kg/m3 | 104.43 J/K/mol and 103.57 J/K/mol
335 K, Mass density=1199.1 kg/m3 | 102.85 J/K/mol
336 K, Mass density=976 kg/m3 | 107.32 J/K/mol and 107.23 J/K/mol
336 K, Mass density=1077.8 kg/m3 | 104.74 J/K/mol and 104.05 J/K/mol
336 K, Mass density=1198.9 kg/m3 | 102.26 J/K/mol
337 K, Mass density=975.9 kg/m3 | 107.6 J/K/mol and 108.43 J/K/mol
337 K, Mass density=1077.7 kg/m3 | 105.57 J/K/mol and 105.69 J/K/mol
337 K, Mass density=1198.8 kg/m3 | 103.71 J/K/mol
338 K, Mass density=975.9 kg/m3 | 107.08 J/K/mol and 107.59 J/K/mol
338 K, Mass density=1077.6 kg/m3 | 104.15 J/K/mol and 105.09 J/K/mol
338 K, Mass density=1198.7 kg/m3 | 104.23 J/K/mol
339 K, Mass density=883.4 kg/m3 | 114.19 J/K/mol
339 K, Mass density=975.8 kg/m3 | 106.21 J/K/mol and 106.6 J/K/mol
339 K, Mass density=1077.5 kg/m3 | 103.97 J/K/mol and 103.59 J/K/mol
339 K, Mass density=1198.5 kg/m3 | 104 J/K/mol
340 K, Mass density=883.3 kg/m3 | 112.9 J/K/mol
340 K, Mass density=975.7 kg/m3 | 106.54 J/K/mol and 107.42 J/K/mol
340 K, Mass density=1077.4 kg/m3 | 104.49 J/K/mol and 105.35 J/K/mol
341 K, Mass density=883.3 kg/m3 | 112.1 J/K/mol
341 K, Mass density=975.6 kg/m3 | 107.88 J/K/mol and 107.61 J/K/mol
341 K, Mass density=1077.3 kg/m3 | 105.62 J/K/mol and 105.16 J/K/mol
342 K, Mass density=883.2 kg/m3 | 111.03 J/K/mol
342 K, Mass density=975.6 kg/m3 | 107 J/K/mol
342 K, Mass density=1077.2 kg/m3 | 104.92 J/K/mol and 104.79 J/K/mol
343 K, Mass density=502.9 kg/m3 | 134.81 J/K/mol
343 K, Mass density=883.1 kg/m3 | 110.42 J/K/mol
343 K, Mass density=975.5 kg/m3 | 106.86 J/K/mol
343 K, Mass density=1077.1 kg/m3 | 104.17 J/K/mol and 104.84 J/K/mol
344 K, Mass density=502.9 kg/m3 | 132.16 J/K/mol
344 K, Mass density=585.8 kg/m3 | 125.97 J/K/mol
344 K, Mass density=883.1 kg/m3 | 111.3 J/K/mol
344 K, Mass density=975.4 kg/m3 | 106.41 J/K/mol
344 K, Mass density=1077 kg/m3 | 104.75 J/K/mol and 104.6 J/K/mol
345 K, Mass density=502.9 kg/m3 | 126.98 J/K/mol
345 K, Mass density=585.7 kg/m3 | 123.95 J/K/mol
345 K, Mass density=585.8 kg/m3 | 131.35 J/K/mol
345 K, Mass density=688.7 kg/m3 | 126.83 J/K/mol
345 K, Mass density=883 kg/m3 | 111.02 J/K/mol
345 K, Mass density=975.3 kg/m3 | 107.26 J/K/mol
345 K, Mass density=1076.9 kg/m3 | 105.11 J/K/mol and 104.72 J/K/mol
346 K, Mass density=403.2 kg/m3 | 120.08 J/K/mol
346 K, Mass density=502.9 kg/m3 | 120.15 J/K/mol
346 K, Mass density=585.7 kg/m3 | 120.32 J/K/mol
346 K, Mass density=585.8 kg/m3 | 127.65 J/K/mol
346 K, Mass density=688.7 kg/m3 | 123.21 J/K/mol
346 K, Mass density=774.1 kg/m3 | 115.2 J/K/mol
346 K, Mass density=883 kg/m3 | 110.89 J/K/mol
346 K, Mass density=975.3 kg/m3 | 107.47 J/K/mol and 107.62 J/K/mol
346 K, Mass density=1076.8 kg/m3 | 105.53 J/K/mol and 105.08 J/K/mol
347 K, Mass density=403.2 kg/m3 | 117.75 J/K/mol
347 K, Mass density=503 kg/m3 | 115.93 J/K/mol
347 K, Mass density=585.7 kg/m3 | 117.72 J/K/mol
347 K, Mass density=585.8 kg/m3 | 123.89 J/K/mol
347 K, Mass density=688.7 kg/m3 | 119.23 J/K/mol
347 K, Mass density=774.1 kg/m3 | 114.9 J/K/mol
347 K, Mass density=882.9 kg/m3 | 110.19 J/K/mol
347 K, Mass density=975.2 kg/m3 | 105.52 J/K/mol and 107.28 J/K/mol
347 K, Mass density=1076.7 kg/m3 | 105.04 J/K/mol and 104.54 J/K/mol
348 K, Mass density=403.3 kg/m3 | 116.59 J/K/mol
348 K, Mass density=503 kg/m3 | 118.49 J/K/mol
348 K, Mass density=585.7 kg/m3 | 124.85 J/K/mol and 118.08 J/K/mol
348 K, Mass density=688.7 kg/m3 | 117.7 J/K/mol
348 K, Mass density=774 kg/m3 | 114.62 J/K/mol
348 K, Mass density=882.8 kg/m3 | 109.75 J/K/mol
348 K, Mass density=975.1 kg/m3 | 106.21 J/K/mol and 107.41 J/K/mol
348 K, Mass density=1076.6 kg/m3 | 104.59 J/K/mol and 104.74 J/K/mol
349 K, Mass density=403.3 kg/m3 | 115.69 J/K/mol
349 K, Mass density=503 kg/m3 | 119.76 J/K/mol
349 K, Mass density=585.7 kg/m3 | 123.44 J/K/mol and 117.14 J/K/mol
349 K, Mass density=688.6 kg/m3 | 119.03 J/K/mol
349 K, Mass density=774 kg/m3 | 115.4 J/K/mol
349 K, Mass density=882.8 kg/m3 | 110.59 J/K/mol
349 K, Mass density=975 kg/m3 | 107.41 J/K/mol and 108.49 J/K/mol
349 K, Mass density=1076.6 kg/m3 | 105.38 J/K/mol and 105.95 J/K/mol
350 K, Mass density=403.4 kg/m3 | 113.67 J/K/mol
350 K, Mass density=503 kg/m3 | 116.82 J/K/mol
